Laboratory results reported in patent US8183272B2, “Indanyl compounds” (Daiichi Sankyo Company, Limited, priority 2008, dated 2012).

Molecular target: T1, human calcium-sensing receptor (CaSR) (Homo sapiens, UniProt P41180)
T1 construct: expressed in transfected cells; host or cells: CHO cells (CHO/hCaSR)
T1 sequence (P41180 20-1078): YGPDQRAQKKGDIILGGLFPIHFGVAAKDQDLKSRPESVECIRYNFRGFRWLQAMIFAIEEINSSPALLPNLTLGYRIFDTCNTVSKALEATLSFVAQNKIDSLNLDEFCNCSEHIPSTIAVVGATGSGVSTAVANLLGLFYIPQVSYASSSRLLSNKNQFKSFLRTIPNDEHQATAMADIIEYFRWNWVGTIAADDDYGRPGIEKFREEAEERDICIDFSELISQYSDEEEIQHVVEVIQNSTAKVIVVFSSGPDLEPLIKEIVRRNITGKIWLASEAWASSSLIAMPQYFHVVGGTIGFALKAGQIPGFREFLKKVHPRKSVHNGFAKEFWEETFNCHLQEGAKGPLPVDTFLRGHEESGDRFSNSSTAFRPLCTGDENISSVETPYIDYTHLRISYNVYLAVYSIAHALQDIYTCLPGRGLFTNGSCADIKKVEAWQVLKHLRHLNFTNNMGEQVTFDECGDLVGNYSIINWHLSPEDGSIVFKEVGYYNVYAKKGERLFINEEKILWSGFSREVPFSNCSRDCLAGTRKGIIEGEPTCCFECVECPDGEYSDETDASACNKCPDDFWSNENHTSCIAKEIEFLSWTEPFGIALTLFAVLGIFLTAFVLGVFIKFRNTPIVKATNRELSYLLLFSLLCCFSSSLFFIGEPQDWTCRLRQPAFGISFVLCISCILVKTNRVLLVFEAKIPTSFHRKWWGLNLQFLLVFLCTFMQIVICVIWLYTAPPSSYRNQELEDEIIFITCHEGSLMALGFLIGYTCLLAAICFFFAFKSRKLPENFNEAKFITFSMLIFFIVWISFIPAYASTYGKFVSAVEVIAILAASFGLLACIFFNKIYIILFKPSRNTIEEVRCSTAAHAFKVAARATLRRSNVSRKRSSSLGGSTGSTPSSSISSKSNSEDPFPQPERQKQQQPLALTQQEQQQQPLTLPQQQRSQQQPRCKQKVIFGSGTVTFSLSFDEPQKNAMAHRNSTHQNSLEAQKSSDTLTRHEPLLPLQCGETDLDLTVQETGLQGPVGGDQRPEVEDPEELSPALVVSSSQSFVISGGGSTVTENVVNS
Assay: Inhibitory activity on calcium-sensing receptor (CaSR) using intracellular calcium increase as an indicator (FLIPR, CHO/hCaSR)
Format: cell-based
Conditions: CHO/hCaSR cells; intracellular Ca increase induced by CaCl2; test compound 1.05 to 10,000 nM
Protocol: Evaluation of inhibitory activity on calcium-sensing receptor (CaSR) using intracellular calcium increase as an indicator
The preparation which is prepared by adding CHO/hCaSR to F12 medium (manufactured by Invitrogen) containing 10% fetal bovine serum to have 2×10^5 cells/mL was applied to a 384-well in an amount of 50 μL/well, and then incubated overnight in a CO2 incubator. The culture supernatant was completely removed, the assay buffer (20 mM HEPES, HBSS (Ca and Mg free) containing 2.5 mM probenecid, pH 7.4) containing Calcium 3 (manufactured by Molecular Devices), i.e., a fluorescent intracellular calcium indicator, was added thereto in an amount of 25 μL/well, and the mixture was maintained for 1 hour in a CO2 incubator. Meanwhile, Calcium 3 was prepared according to the protocol enclosed in FLIPR Calcium 3 Assay Kit (manufactured by Molecular Devices). After maintaining it for 1 hour, a solution in which the test compound is prepared to have 2.1 to 20,000 nM (final concentration of 1.05 to 10,000 nM) by an assay buffer was added thereto in an amount of 25 μL/well, and maintained for 15 minutes in a CO2 incubator. Then, the CaCl2 solution prepared to have […] by using the assay buffer was added in an amount of 25 μL/well, and the resulting intracellular Ca increase (i.e., fluorescence intensity) was measured over time using a fluorescence imaging plate reader (FLIPR, manufactured by Molecular Devices). From the data obtained, the difference between the fluorescence intensity before the addition of CaCl2 solution and the maximum fluorescence intensity after the addition of CaCl2 solution was calculated, and the 50% inhibition concentration (IC50) of the test compound was obtained.

Structure (SMILES): C[C@@H](OC[C@H](O)CNC(C)(C)CC1Cc2ccccc2C1)c1c(F)cccc1CCC(=O)O [31 low polarity, 3-{2-[(1R)-1-{[(2R)-3-{[1-(2,3-dihydro-1H-inden-2-yl)-2-methylpropan-2-yl]amino}-2-hydroxypropyl]oxy}ethyl]-3-fluorophenyl}propanoic acid]
- IC50: ≤ 2400 nM

Structure (SMILES): C[C@@H](OC[C@H](O)CNC(C)(C)CC1Cc2ccccc2C1)c1ccccc1CCC(=O)O [Example 1, 3-{2-[(1R)-1-{[(2R)-3-{[1-(2,3-Dihydro-1H-inden-2-yl)-2-methylpropan-2-yl]amino}-2-hydroxypropyl]oxy}ethyl]phenyl}propanoic acid]
- IC50: ≤ 2500 nM

Structure (SMILES): C[C@@H](OC[C@H](O)CNC(C)(C)CC1Cc2ccccc2C1)c1ccccc1CCCC(=O)O [Example 2, 4-{2-[(1R)-1-{[(2R)-3-{[1-(2,3-Dihydro-1H-inden-2-yl)-2-methylpropan-2-yl]amino}-2-hydroxypropyl]oxy}ethyl]phenyl}butanoic acid]
- IC50: ≤ 2420 nM

Structure (SMILES): Cc1cc(-c2ccccc2[C@@H](C)OC[C@H](O)CNC(C)(C)CC2Cc3ccccc3C2)ccc1C(=O)O [Example 3, 2′-[(1R)-1-{[(2R)-3-{[1-(2,3-Dihydro-1H-inden-2-yl)-2-methylpropan-2-yl]amino}-2-hydroxypropyl]oxy}ethyl]-3-methylbiphenyl-4-carboxylic acid]
- IC50: ≤ 2190 nM

Structure (SMILES): Cc1ccc([C@@H](C)OC[C@H](O)CNC(C)(C)CC2Cc3ccccc3C2)c(CCC(=O)O)c1 [Example 5, 3-{2-[(1R)-1-{[(2R)-3-{[1-(2,3-Dihydro-1H-inden-2-yl)-2-methylpropan-2-yl]amino}-2-hydroxypropyl]oxy}ethyl]-5-methylphenyl}propanoic acid]
- IC50: ≤ 2420 nM

Structure (SMILES): Cc1ccc(CCC(=O)O)c([C@@H](C)OC[C@H](O)CNC(C)(C)CC2Cc3ccccc3C2)c1 [Example 6, 3-{2-[(1R)-1-{[(2R)-3-{[1-(2,3-Dihydro-1H-inden-2-yl)-2-methylpropan-2-yl]amino}-2-hydroxypropyl]oxy}ethyl]-4-methylphenyl}propanoic acid]
- IC50: ≤ 2420 nM

Structure (SMILES): C[C@@H](OC[C@H](O)CNC(C)(C)CC1Cc2ccccc2C1)c1cccc(F)c1CCC(=O)O [Example 7, 3-{2-[(1R)-1-{[(2R)-3-{[1-(2,3-Dihydro-1H-inden-2-yl)-2-methylpropan-2-yl]amino}-2-hydroxypropyl]oxy}ethyl]-6-fluorophenyl}propanoic acid]
- IC50: ≤ 2400 nM

Structure (SMILES): C[C@@H](OC[C@H](O)CNC(C)(C)CC1Cc2ccccc2C1)c1ccc(F)cc1CCC(=O)O [Example 8, 3-{2-[(1R)-1-{[(2R)-3-{[1-(2,3-Dihydro-1H-inden-2-yl)-2-methylpropan-2-yl]amino}-2-hydroxypropyl]oxy}ethyl]-5-fluorophenyl}propanoic acid]
- IC50: ≤ 2400 nM

Structure (SMILES): C[C@@H](OC[C@H](O)CNC(C)(C)CC1Cc2ccccc2C1)c1cc(F)ccc1CCC(=O)O [Example 9, 3-{2-[(1R)-1-{[(2R)-3-{[1-(2,3-Dihydro-1H-inden-2-yl)-2-methylpropan-2-yl]amino}-2-hydroxypropyl]oxy}ethyl]-4-fluorophenyl}propanoic acid]
- IC50: ≤ 2400 nM

Structure (SMILES): C[C@@H](OC[C@H](O)CNC(C)(C)CC1Cc2ccccc2C1)c1cccc(C(F)(F)F)c1CCC(=O)O [Example 10, 3-{2-[(1R)-1-{[(2R)-3-{[1-(2,3-Dihydro-1H-inden-2-yl)-2-methylpropan-2-yl]amino}-2-hydroxypropyl]oxy}ethyl]-6-(trifluoromethyl)phenyl}propanoic acid]
- IC50: ≤ 2170 nM

Structure (SMILES): C[C@@H](OC[C@H](O)CNC(C)(C)CC1Cc2ccccc2C1)c1ccc(C(F)(F)F)cc1CCC(=O)O [Example 11, 3-{2-[(1R)-1-{[(2R)-3-{[1-(2,3-Dihydro-1H-inden-2-yl)-2-methylpropan-2-yl]amino}-2-hydroxypropyl]oxy}ethyl]-5-(trifluoromethyl)phenyl}propanoic acid]
- IC50: ≤ 2170 nM

Structure (SMILES): Cc1cc(-c2ccccc2[C@@H](C)OC[C@H](O)CNC2(CC3Cc4ccccc4C3)CC2)ccc1C(=O)O [Example 12, 2′-[(1R)-1-{[(2R)-3-{[1-(2,3-Dihydro-1H-inden-2-ylmethyl)cyclopropyl]amino}-2-hydroxypropyl]oxy}ethyl]-3-methylbiphenyl-4-carboxylic acid]
- IC50: ≤ 2200 nM

Structure (SMILES): C[C@@H](OC[C@H](O)CNC(C)(C)CC1Cc2ccccc2C1)c1ccccc1CCCCC(=O)O [Example 13, 5-{2-[(1R)-1-{[(2R)-3-{[1-(2,3-Dihydro-1H-inden-2-yl)-2-methylpropan-2-yl]amino}-2-hydroxypropyl]oxy}ethyl]phenyl}pentanoic acid]
- IC50: ≤ 2350 nM

Structure (SMILES): COc1ccc([C@@H](C)OC[C@H](O)CNC(C)(C)CC2Cc3ccccc3C2)c(CCC(=O)O)c1 [Example 16]
- IC50: ≤ 2340 nM

Structure (SMILES): COc1cccc([C@@H](C)OC[C@H](O)CNC(C)(C)CC2Cc3ccccc3C2)c1CCC(=O)O [Example 17]
- IC50: ≤ 2340 nM

Structure (SMILES): CC[C@@H](OC[C@H](O)CNC(C)(C)CC1Cc2ccccc2C1)c1ccccc1CCC(=O)O [Example 18]
- IC50: ≤ 2420 nM

Structure (SMILES): CCC[C@@H](OC[C@H](O)CNC(C)(C)CC1Cc2ccccc2C1)c1ccccc1CCC(=O)O [Example 21]
- IC50: ≤ 2350 nM

Structure (SMILES): Cc1cc(CCC(=O)O)c([C@@H](C)OC[C@H](O)CNC(C)(C)CC2Cc3ccccc3C2)cc1F [Example 22]
- IC50: ≤ 2330 nM

Structure (SMILES): Cc1cc(CCCCC(=O)O)c([C@@H](C)OC[C@H](O)CNC(C)(C)CC2Cc3ccccc3C2)cc1F [Example 23]
- IC50: ≤ 2200 nM

Structure (SMILES): C[C@@H](OC[C@H](O)CNC(C)(C)CC1Cc2ccccc2C1)c1ccc(C#N)cc1CCC(=O)O [Example 25]
- IC50: ≤ 2370 nM

Structure (SMILES): C[C@@H](OC[C@H](O)CNC(C)(C)CC1Cc2ccccc2C1)c1cc(F)c(F)cc1CCC(=O)O [Example 26]
- IC50: ≤ 2310 nM

Structure (SMILES): C[C@@H](OC[C@H](O)CNC(C)(C)CC1Cc2ccccc2C1)c1cc(F)cc(F)c1CCC(=O)O [Example 27]
- IC50: ≤ 2310 nM

Structure (SMILES): CC(C)(CC1Cc2ccccc2C1)NC[C@@H](O)CO[C@@H](c1ccccc1CCC(=O)O)C1CC1 [Example 29]
- IC50: ≤ 2360 nM

Structure (SMILES): C[C@@H](OC[C@H](O)CNC(C)(C)CC1Cc2ccccc2C1)c1cc(F)c(F)cc1CCCCC(=O)O [Example 30]
- IC50: ≤ 2180 nM

Structure (SMILES): Cc1cccc(CCC(=O)O)c1C(C)OC[C@H](O)CNC(C)(C)CC1Cc2ccccc2C1 (stereo partly shown) [Example 32]
- IC50: ≤ 2420 nM

Structure (SMILES): CC(OC[C@H](O)CNC(C)(C)CC1Cc2ccccc2C1)c1c(Cl)cccc1CCC(=O)O (stereo partly shown) [Example 33]
- IC50: ≤ 2320 nM

Structure (SMILES): C[C@@H](OC[C@H](O)CNC(C)(C)CC1Cc2ccccc2C1)c1cc(F)c(Cl)cc1CCC(=O)O [Example 34]
- IC50: ≤ 2240 nM

Structure (SMILES): COc1cc(F)cc([C@@H](C)OC[C@H](O)CNC(C)(C)CC2Cc3ccccc3C2)c1CCC(=O)O [Example 35]
- IC50: ≤ 2260 nM

Structure (SMILES): CC(OC[C@H](O)CNC(C)(C)CC1Cc2ccccc2C1)c1c(CCC(=O)O)ccc(F)c1F (stereo partly shown) [Example 36]
- IC50: ≤ 2310 nM

Structure (SMILES): COc1cccc([C@@H](C)OC[C@H](O)CNC(C)(C)CC2Cc3ccccc3C2)c1CCCCC(=O)O [Example 37]
- IC50: ≤ 2210 nM

Structure (SMILES): CC[C@@H](OC[C@H](O)CNC(C)(C)CC1Cc2ccccc2C1)c1cc(F)ccc1CCC(=O)O [Example 38]
- IC50: ≤ 2330 nM

Structure (SMILES): CC[C@@H](OC[C@H](O)CNC(C)(C)CC1Cc2ccccc2C1)c1cccc(F)c1CCC(=O)O [Example 39]
- IC50: ≤ 2330 nM

Structure (SMILES): CC[C@@H](OC[C@H](O)CNC(C)(C)CC1Cc2ccccc2C1)c1ccc(C)cc1CCC(=O)O [Example 40]
- IC50: ≤ 2350 nM

Structure (SMILES): CC[C@@H](OC[C@H](O)CNC(C)(C)CC1Cc2ccccc2C1)c1cccc(OC)c1CCC(=O)O [Example 41]
- IC50: ≤ 2270 nM
